Marks after values point to notes of the source that are not given here.
Key:
[1] = tested on: liver fibrosis model in rat induced by CCl4; assay: Prophylaxis action on liver fibrosis in rats induced by CCl4 with high lipid, low protein food; type: in vivo
Protocol: Pharmacological model: The liver fibrosis model in rat was induced by hypodermical injection of CCl4 and fed with the food containing high lipid and low protein. 100 wt % CCl4 was used at the first injection with a dosage of 1 ml/kg wt rat, then 40 wt % CCl4 in olive oil with a dosage of 3 ml/kg wt. was applied, twice per week and lasting for 2 weeks. During the first 2 weeks of intoxication, the rats were fed with the food containing 79.5 wt % maizena, 20 wt % grease and 0.5 wt % cholesterol, then with the pure maize food for later 4 weeks.
All dosages were 10 times human dosage with 65 kg by the same body weight.

[2] = tested on: hepatic fibrosis in rats induced by dimethylnitrosamine (DMN); assay: Treatment effect on hepatic fibrosis in rats induced by dimethylnitrosamine (DMN); type: in vivo, rat
Protocol: Pharmacological model: The hepatic fibrosis model was induced by intraperitoneal injections of dimethylnitrosamine at a dosage of […] rat wt, the injection was given on the first consecutive 3 days of each week over a period of 4 weeks, once per day.
Groups and drug administration: After establishing the model, the model rats were divided into model control, Fuzheng Huayu Prep I, Fuzheng Huayu Prep II, and (N-Acetylcysteine, NAC) groups, also normal rats was set as the normal control, with total 5 groups. The model rats in Fuzheng Huayu Prep I and II took orally Fuzheng Huayu decoction at the dosage of 4.6 g/kg rat wt from the beginning of the 5th week to end of the 8th week, one time per day for 4 weeks, NAC group received NAC at the dosage of 100 mg/kg wt, and controls took the same volume of saline. (body weight equivalent to 10 times of 65 kg adult dosage).

[3] = CCl4 fibrotic rats, 6 weeks dosing, x ± s
[4] = Preps 4.6 g/kg or VitE 50 mg/kg orally once daily for 6 weeks
[5] = DMN fibrotic rats, 4 weeks treatment, x ± s
[6] = Preps 4.6 g/kg or NAC 100 mg/kg once daily, weeks 5-8

Molecule: Vitamin E [Vit E]
- Liver tissue pathological examination (hepatic inflammation, collagen deposition; HE and Sirius red staining), in words ([1]; CCl4 fibrotic rats, vs. model control): much better conditions of hepatic inflammation compared to the controls
- Hepatic Hyp [1, 3]: 296.2 ± 49.8 μg/g liver
- Hepatic MDA [1, 3]: 4.5 ± 1.3 μmol/g protien
- Hepatic SOD [1, 3]: 1062 ± 83 NU/g liver
- Hepatic Triglyceride [1, 3]: 12.6 ± 3.7 μg/g liver
- Serum ALT [1, 3]: 106.4 ± 45.9 U/L
- Serum AST [1, 3]: 127.7 ± 37.2 U/L
- Serum T. BIL [1, 3]: 14.1 ± 3.3 µmol/L
- Serum T. Protein [1, 3]: 55.8 ± 4.2 g/L
- Liver fibrotic stage S0 (number of rats) [1, 4]: 0
- Liver fibrotic stage S1 (number of rats) [1, 4]: 6
- Liver fibrotic stage S2 (number of rats) [1, 4]: 6
- Liver fibrotic stage S3 (number of rats) [1, 4]: 2
- Liver fibrotic stage S4 (number of rats) [1, 4]: 0
- R (Ridit examination of liver fibrotic stages) [1, 4]: 0.506^#

Molecule: CC(=O)N[C@@H](CS)C(=O)O [NAC, N-Acetylcysteine]
- Hepatic Hyp content [2, 5]: 482.1 ± 124.4 μg/g liver
- Hepatic SOD activity [2, 5]: 252.2 ± 47.6^# 10^3 × NU/g protein
- Serum ALT [2, 5]: 67.7 ± 36.1 U/L
- Serum AST [2, 5]: 76.5 ± 25.5 U/L
- Serum Alb [2, 5]: 30.9 ± 5.5 g/L
- Serum T. BIL [2, 5]: 18.8 ± 2.8 µmol/L
- Serum T. Protein [2, 5]: 60.4 ± 11.2 g/L
- Liver fibrotic stage S0 (number of rats) [2, 6]: 0
- Liver fibrotic stage S1 (number of rats) [2, 6]: 1
- Liver fibrotic stage S2 (number of rats) [2, 6]: 5
- Liver fibrotic stage S3 (number of rats) [2, 6]: 4
- Liver fibrotic stage S4 (number of rats) [2, 6]: 2
- R (Ridit examination of liver fibrotic stages) [2, 6]: 0.415^#

Source: patent US9138449B2, “Medicinal composition for liver diseases” (Shanghai Sundise Chinese Medicine Technology Development …, priority 2006, dated 2015)
